Assay results: article PMC9065678, “BI 1015550 is a PDE4B Inhibitor and a Clinical Drug Candidate for the Oral Treatment of Idiopathic Pulmonary Fibrosis” (Frontiers in Pharmacology, 2022)
pIC50: −log10 of the molar value.

Experiments:
FN mRNA expression = assay: TGF-β-induced FN mRNA expression in IPF lung fibroblasts (Taqman); type: cell-based, human; details: IPF-LF, TGF-β 4 ng/mL, 48 h
Method: Fibroblasts from donors with IPF (IPF-LF) (Asterand, Detroit, MI, United States) were grown in fibroblast basal medium (CC-3131, Lonza Walkersville, Inc., Walkersville, MD, United States) supplemented with FGM-2 SingleQuot Kit Supplements and Growth Factors (CC-4126, Lonza). Cells were grown in a humidified incubator at 37°C and 5% CO2. All assays were performed at passage 7 or 8. For assay set-up, cells were seeded in fibroblast growth medium plus supplements in assay-relevant densities. For TGF-β-stimulated assays, cells were seeded at 4,500 cells per well in 96-well plates. Proliferation assays were performed in 96-well plates at an initial seeding cell density on day 0 of 2,000 cells per well. After 24-h, the cell culture medium was changed to starvation medium (fibroblast basal medium without supplements). […]
For determination of Col1A1, Col3A1, and FN mRNA expression, IPF-LF cells were stimulated with TGF-β (4 ng/mL) for 48 h. […] Quantitative real-time polymerase chain reactions were set up using the TaqMan™ Fast Advanced Master Mix (Applied Biosystems, Carlsbad, CA, United States) and species-specific gene expression assays: Col1A1 #Hs00164004_m1 FAM, Col3A1 #Hs0094309_m1 FAM, FN #Hs01549976_m1 FAM, 18S #4310893E. […] Fold-change of gene expression was calculated by the Viia7 software (regulation based upon housekeeper).

PDE7A = target: T1, PDE7A (Homo sapiens, UniProt Q13946); assay: Recombinant PDE activity, scintillation proximity assay: PDE7A; type: biochemical; details: calculated IC50
T1 construct: made in house; host or cells: SF9 insect cells (baculovirus, Bac-To-Bac, pFastbac)
T1 sequence (Q13946 whole entry): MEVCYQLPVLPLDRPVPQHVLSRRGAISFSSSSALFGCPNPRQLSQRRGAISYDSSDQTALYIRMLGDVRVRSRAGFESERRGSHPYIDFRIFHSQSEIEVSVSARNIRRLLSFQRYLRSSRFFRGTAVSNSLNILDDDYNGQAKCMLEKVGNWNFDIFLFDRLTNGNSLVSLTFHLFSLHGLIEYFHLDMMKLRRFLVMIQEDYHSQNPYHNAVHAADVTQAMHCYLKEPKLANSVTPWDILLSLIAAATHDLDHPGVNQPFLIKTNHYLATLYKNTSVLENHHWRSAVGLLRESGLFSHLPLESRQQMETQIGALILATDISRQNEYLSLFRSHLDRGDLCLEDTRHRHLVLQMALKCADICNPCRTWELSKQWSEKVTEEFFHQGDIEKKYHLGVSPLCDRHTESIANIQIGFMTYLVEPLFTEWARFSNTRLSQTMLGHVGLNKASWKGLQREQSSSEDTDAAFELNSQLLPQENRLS
Description: (§1) For the preparation of human recombinant PDEs of interest, the Bac-To-Bac baculoviral expression system from Invitrogen (Carlsbad, CA, United States) was used according to the instruction manual. In short, the full-length open reading frames of PDE1C (National Center for Biotechnology Information Gene-Ref-Seq identifier NG_051183), PDE3A (NG_030033), PDE4A (NG_029594, AA 156–886), PDE4C (NG_029629), PDE7A (NG_029614), and PDE9A (NG_047067) were cloned into the plasmid vector pFastbac. For PDE4B and PDE4D, active site fragments were used (PDE4B NG_029038: AA 152–484, PDE4D NG_027957, AA 79–438). The plasmids were transformed into DH10Bac bacteria, SF9 insect cells were transfected with the bacmid DNA, and the resulting baculoviruses were stored and used for further rounds of infections. […] The protein content was measured and an equal volume of 87% (v/v) glycerol was added prior to freezing at −20°C. […] The reaction was stopped by addition of 50 µL of yttrium silicate scintillation proximity assay beads (17.8 mg/mL, 18 mM zinc sulfate in H2O) and the amount of produced [^3H]AMP/[^3H]GMP associated was determined using a Wallac Microbeta scintillation counter. […]

[1] = tested on: LPS-induced lung neutrophil influx; assay: LPS-induced lung neutrophil influx in male Wistar rats; type: in vivo, rat; details: oral, data not shown
Description: Compared with other animal species used to study emesis induction by PDE4 inhibitors, like ferrets, dogs, minipigs, or monkeys, Suncus murinus allows the testing of a sufficient number of animals to provide a high statistical power. […] Male Suncus murinus (weight 50–55 g) from Boehringer Ingelheim (Biberach an der Riss, Germany) or male Wistar rats (200–250 g, Charles River), eight animals per group, were used. […] For this purpose, animals in the positive control and treatment groups were put into a circular Plexiglas chamber with 16 pie-like compartments for one animal each, and were consecutively exposed to nebulized LPS for 30 min. The LPS solution used for nebulization contained 1 mg/mL LPS in phosphate-buffered saline (PBS). Nebulization was performed with the commercially available PARI Master® nebulizer with a PARI Master® LL adapter (Pari GmbH, Starnberg, Germany). 4 h after LPS exposure, the animals were anesthetized and euthanized by cervical dislocation. After sacrifice, the trachea was cannulated and bronchoalveolar lavage was performed by instilling and re-aspirating two-times 1 mL (Suncus murinus) or 5 mL (rat) lavage buffer (PBS +2% bovine serum albumin). BALF volumes were recorded manually. Determination of neutrophil numbers in BALF was performed using a blood hemacytometer (Sysmex XT-1800i, Kobe, Japan).

α-SMA protein expression = α-SMA protein expression of TGF-β-stimulated IPF lung fibroblasts (Western blot replacement assay); type: cell-based, human
Method: Fibroblasts from donors with IPF (IPF-LF) (Asterand, Detroit, MI, United States) were grown in fibroblast basal medium (CC-3131, Lonza Walkersville, Inc., Walkersville, MD, United States) supplemented with FGM-2 SingleQuot Kit Supplements and Growth Factors (CC-4126, Lonza). Cells were grown in a humidified incubator at 37°C and 5% CO2. All assays were performed at passage 7 or 8. For assay set-up, cells were seeded in fibroblast growth medium plus supplements in assay-relevant densities. For TGF-β-stimulated assays, cells were seeded at 4,500 cells per well in 96-well plates. Proliferation assays were performed in 96-well plates at an initial seeding cell density on day 0 of 2,000 cells per well. After 24-h, the cell culture medium was changed to starvation medium (fibroblast basal medium without supplements). After a 24-h starvation period, cells were pre-incubated for 30 min with different concentrations of BI 1015550 plus/minus different concentrations of nintedanib and/or 1 nmol/L PGE2 and stimulated with the assay-relevant stimulus for the indicated time in the presence of the compound.
For determination of α-SMA protein expression, IPF-LF cells were stimulated with TGF-β (4 ng/mL) for 48 h. Lysates were assayed in a Western blot replacement assay (MSD). In short, lysates were pipetted onto high binding plates (MSD) and were sequentially incubated with a mouse anti-human α-SMA antibody (Sigma Aldrich) and an anti-mouse sulfo-tag antibody (MSD). For analysis, an MSD sector imager was used.

PDE3A = target: T2, PDE3A (Homo sapiens, UniProt Q14432); assay: Recombinant PDE activity, scintillation proximity assay: PDE3A; type: biochemical; details: calculated IC50
T2 construct: made in house; host or cells: SF9 insect cells (baculovirus, Bac-To-Bac, pFastbac)
T2 sequence (Q14432 whole entry): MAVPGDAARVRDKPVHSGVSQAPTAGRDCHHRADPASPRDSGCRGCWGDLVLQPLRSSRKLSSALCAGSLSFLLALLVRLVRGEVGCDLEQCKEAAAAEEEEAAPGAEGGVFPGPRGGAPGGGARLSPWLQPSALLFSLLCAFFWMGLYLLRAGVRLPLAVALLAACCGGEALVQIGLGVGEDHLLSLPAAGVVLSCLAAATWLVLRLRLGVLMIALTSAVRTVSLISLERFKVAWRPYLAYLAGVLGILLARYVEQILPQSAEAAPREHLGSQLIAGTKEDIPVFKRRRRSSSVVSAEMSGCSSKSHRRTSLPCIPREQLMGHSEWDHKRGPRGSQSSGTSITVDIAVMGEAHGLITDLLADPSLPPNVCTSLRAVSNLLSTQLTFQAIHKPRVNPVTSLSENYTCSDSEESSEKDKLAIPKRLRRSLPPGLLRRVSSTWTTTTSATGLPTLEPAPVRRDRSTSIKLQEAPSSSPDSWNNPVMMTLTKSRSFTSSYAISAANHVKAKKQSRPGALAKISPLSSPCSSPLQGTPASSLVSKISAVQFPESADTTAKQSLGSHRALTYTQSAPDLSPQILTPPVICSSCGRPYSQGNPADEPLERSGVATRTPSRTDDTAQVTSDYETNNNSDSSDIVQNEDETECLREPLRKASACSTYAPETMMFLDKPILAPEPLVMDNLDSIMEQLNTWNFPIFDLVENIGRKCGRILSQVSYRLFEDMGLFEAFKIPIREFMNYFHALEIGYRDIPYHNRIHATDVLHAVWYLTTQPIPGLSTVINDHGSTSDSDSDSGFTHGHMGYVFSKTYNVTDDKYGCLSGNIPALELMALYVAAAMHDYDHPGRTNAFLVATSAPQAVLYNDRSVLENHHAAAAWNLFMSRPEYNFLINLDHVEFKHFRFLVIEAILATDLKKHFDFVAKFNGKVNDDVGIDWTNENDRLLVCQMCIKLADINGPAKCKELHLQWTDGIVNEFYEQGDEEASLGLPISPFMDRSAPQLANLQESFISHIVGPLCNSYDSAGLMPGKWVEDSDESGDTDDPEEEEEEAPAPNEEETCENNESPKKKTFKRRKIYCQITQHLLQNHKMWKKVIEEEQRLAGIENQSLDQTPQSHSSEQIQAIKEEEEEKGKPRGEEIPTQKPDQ
Description: as §1

PDE1C = target: T3, PDE1C (Homo sapiens, UniProt Q14123); assay: Recombinant PDE activity, scintillation proximity assay: PDE1C; type: biochemical
T3 construct: the full-length open reading frames of PDE1C; made in house; host or cells: SF9 insect cells (baculovirus, Bac-To-Bac, pFastbac)
T3 sequence (Q14123 whole entry): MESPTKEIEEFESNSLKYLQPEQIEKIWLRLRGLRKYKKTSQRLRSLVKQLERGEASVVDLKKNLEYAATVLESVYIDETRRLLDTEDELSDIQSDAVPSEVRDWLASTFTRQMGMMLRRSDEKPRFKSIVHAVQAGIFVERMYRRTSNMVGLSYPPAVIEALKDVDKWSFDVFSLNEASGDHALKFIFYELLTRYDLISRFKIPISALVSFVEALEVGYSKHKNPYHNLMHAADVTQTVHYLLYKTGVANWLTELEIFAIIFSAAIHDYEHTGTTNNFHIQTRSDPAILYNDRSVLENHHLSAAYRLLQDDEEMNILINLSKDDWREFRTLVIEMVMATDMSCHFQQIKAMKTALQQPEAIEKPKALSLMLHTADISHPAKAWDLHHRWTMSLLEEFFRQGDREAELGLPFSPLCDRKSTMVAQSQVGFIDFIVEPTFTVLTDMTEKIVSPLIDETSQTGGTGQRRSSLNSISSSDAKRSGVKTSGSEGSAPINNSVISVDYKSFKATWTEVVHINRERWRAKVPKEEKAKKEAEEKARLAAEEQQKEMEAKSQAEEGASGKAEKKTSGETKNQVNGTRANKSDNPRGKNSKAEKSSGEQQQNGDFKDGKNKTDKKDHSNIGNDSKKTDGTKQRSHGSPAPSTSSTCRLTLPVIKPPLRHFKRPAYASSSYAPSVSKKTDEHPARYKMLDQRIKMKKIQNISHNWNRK
Description: as §1

[O-][S+]1CCc2nc(N3CCC(c4ncc(Cl)cn4)CC3)nc(NC3(CO)CCC3)c21 (stereo not drawn) [BI 1015550] was tested, and the pIC50 (FN mRNA expression) was 6.61, the pIC50 (PDE7A) was 4.85 and the “ED50 LPS-induced lung neutrophil influx” value [1] was 0.1 mg/kg. The pIC50 (α-SMA protein expression; TGF-β (4 ng/mL, 48 h)-stimulated IPF-LF) was 6.68, the “Additional inhibitory efficacy on α-SMA protein expression in combination” value (α-SMA protein expression; combination with nintedanib 10–100 nmol/L) was “did not result in additional inhibitory efficacy” and the “Additional inhibitory effects in combination, myofibroblast transformation assay” value (α-SMA protein expression; combination with pirfenidone (100 µmol/L), data not shown) was “did not yield any additional inhibitory effects”. It also gave a pIC50 (PDE3A) of 3.92, a pIC50 (PDE1C; substrate cAMP) of 4.34 and a pIC50 (PDE1C; substrate cGMP) of 4.07.
